Laboratory results: patent publication US12458647B2, “Macrocyclic derivative and use thereof” (Guangzhou Joyo Pharmatech Co., Ltd., priority 2022, dated 2025)
One block for each molecule: values may come before it.

Key:
A427 cell line = test: In vitro cell proliferation experiment (5 days), A427; type: cell-based; details: A427, 5 days; read-out: Inhibitory Activity IC50
Description: (§1) RPMI 1640 medium, DMEM, Ham's F12 medium, F12K medium, IMDM and penicillin/streptomycin antibiotics were purchased from Gibco, fetal bovine serum was purchased from Hyclone, Envision multilabel plate reader (PerkinElmer). […]
(§2) The test compound was diluted by 5-fold to 8 concentrations with a pipette, i.e., from 2 mM to 25.6 nM, and replicate wells were set up for the experiment. […] Another cell plate was prepared, and the signal value was read as the maximum value (the maximum value in the following equation) on the day of dosing for data analysis.
(§3) 50 μL of cell viability chemiluminescent detection reagent was added to the cell plate and incubated at room temperature for 30 minutes to stabilize the luminescence signal. A multilabel plate reader was used for reading. […]

[1] = tested on: human pancreatic cancer PK59 cells; test: In vivo pharmacodynamic study, PK59 subcutaneous xenograft tumor model in BALB/c nude mice; details: gavage once daily
Description: To study the in vivo efficacy of a compound of the present disclosure in BALB/c nude mice subcutaneous xenograft tumor model of human pancreatic cancer PK59 cells.
Laboratory animals: Female BALB/c nude mice, 6-8 weeks old, weighing 18-22 g; supplier. Beijing Vital River Laboratory Animal Technology Co., Ltd.
(1) Cell culture. Human pancreatic cancer PK59 cells were cultured in vitro in a monolayer, and the culture conditions were 10% fetal bovine serum added to Gibco RMPI1640 medium, incubated at 37° C. in a 5% CO2 incubator. Routine passage was performed twice a week with trypsin-EDTA for digestion. When the cell saturation was 80%-90% and the required number was reached, the cells were collected, counted, and inoculated.
(2) Tumour cell inoculation and grouping: 0.2 mL (2×10^6) of PK59 cells (Matrigel was added in a volume ratio of 1:1) was subcutaneously inoculated into the right back of each mouse, and dosing was started when the mean tumor volume reached about 104.4 mm^3, with 6 animals in each group.
The vehicle was 5% DMSO/10% solutol/85% water. Control group: The vehicle was administered via gavage once daily at a dose of 10 μL/g; treatment group: After dissolving the test compound in the vehicle, the compound was administered by gavage once daily.
(3) The tumor diameter was measured with a vernier caliper twice weekly, and the tumor volume (V) was calculated. The formula is: V=0.5a×b^2, where a and b are the long and short diameters of the tumor, respectively. The tumor inhibitory efficacy of the test compound was evaluated by the tumor growth inhibition rate (TGI). The calculation formula is: TGI %=[1−(Mean tumor volume at the end of dosing in a treatment group−Mean tumor volume at the start of dosing in this treatment group)/(Mean tumor volume at the end of treatment in the vehicle control group−Mean tumor volume at the start of treatment in the vehicle control group)×100%.

GP2D cell line = test: In vitro cell proliferation experiment (5 days, 3D CellTiter-Glo), GP2D; type: cell-based; details: read-out: Inhibitory Activity IC50
Description: as §1, §2, §3

Capan-1 cells = test: In vitro cell proliferation experiment (5 days), Capan-1; type: cell-based; details: Capan-1, 5 days; read-out: Inhibitory Activity IC50
Description: as §1, §2, §3

NCI—H727 cells = test: In vitro cell proliferation experiment (5 days), H727; type: cell-based; details: H727, 5 days; read-out: Inhibitory Activity IC50
Description: as §1, §2, §3

[2] = Pharmacokinetics test in mice; type: in vivo, male CD-1 (ICR) mice; details: male CD-1 mice
Description: The pharmacokinetic behavior of the compounds of the present disclosure was evaluated in male CD-1 (ICR) mice.
The compounds to be tested were dissolved in the vehicle (5% DMSO/10% solutol/85% water). Four male CD-1 mice were divided into 2 groups of 2 mice each. Group 1 mice were administered a single intravenous bolus injection of the compound at a dose of 1 mg/kg. Group 2 mice were administered a single dose of the compound by gavage at a dose of 10 mg/kg. Whole blood samples were collected at 0.083 (intravenous bolus group only), 0.25, 0.5, 1, 2, 4, 8 and 24 hours after dosing. The LC-MS/MS method was used to determine the concentration of the test compound in whole blood samples.

[3] = intravenous bolus 1 mg/kg, whole blood

SMILES: CCn1c(-c2cc(N3CCN(C)CC3)cnc2C(C)OC)c2c3cc(ccc31)-c1csc(n1)CC(NC(=O)C1C(C)C1C)C(=O)N1NC(C(=O)OCC(C)(C)C2)C2CC1C2 (single isomer, unassigned) [Compound 6A]
- IC50 (A427 cell line): 13.3 nM
- Tumour Volume (mm^3) Day 1 ([1]; 0.5 mpk): 103.6 mm^3
- Tumour Volume (mm^3) Day 7 ([1]; 0.5 mpk): 111.0 mm^3
- Tumour Volume (mm^3) Day 14 ([1]; 0.5 mpk): 112.4 mm^3
- TGI (%) Day 22 ([1]; 0.5 mpk): 101%
- Tumour Volume (mm^3) Day 22 ([1]; 0.5 mpk): 96.4 mm^3
- Tumour Volume (mm^3) Day 1 ([1]; 2 mpk): 103.5 mm^3
- Tumour Volume (mm^3) Day 7 ([1]; 2 mpk): 64.3 mm^3
- Tumour Volume (mm^3) Day 14 ([1]; 2 mpk): 45.5 mm^3
- TGI (%) Day 22 ([1]; 2 mpk): 107%
- Tumour Volume (mm^3) Day 22 ([1]; 2 mpk): 43.3 mm^3
- Tumour Volume (mm^3) Day 1 ([1]; 5 mpk): 103.8 mm^3
- Tumour Volume (mm^3) Day 7 ([1]; 5 mpk): 65.0 mm^3
- Tumour Volume (mm^3) Day 14 ([1]; 5 mpk): 35.7 mm^3
- TGI (%) Day 22 ([1]; 5 mpk): 108%
- Tumour Volume (mm^3) Day 22 ([1]; 5 mpk): 34.3 mm^3
- IC50 (GP2D cell line): 0.9 nM
- IC50 (Capan-1 cells): 2.5 nM
- IC50 (NCI—H727 cells): 0.4 nM

- bioavailability (F) ([2]; gavage 10 mg/kg vs i.v. 1 mg/kg): 54.3%
- AUC0-last ([2]; gavage 10 mg/kg, whole blood): 17,119 h·nmol/mL
- time to maximum concentration (τmax) ([2]; gavage 10 mg/kg, whole blood): 3.0 h
- apparent volume of distribution at steady state (Vd) [2, 3]: 2.18 L/kg
- area under the whole blood concentration-time curve (AUC0-last) [2, 3]: 3.160 µM·h
- elimination half-life (T1/2) [2, 3]: 4.29 h
- whole blood clearance (C1) [2, 3]: 6.29 mL/min/kg
SMILES: CCn1c(-c2cc(N3CCN(C)CC3)cnc2C(C)OC)c2c3cc(ccc31)-c1csc(n1)CC(NC(=O)C1CC1C)C(=O)N1NC(C(=O)OCC(C)(C)C2)C2CC1C2 (single isomer, unassigned) [Compound 7A]
